Measurements as given in patent US20080027076A1, “Pyrimidines With Tie2 (Tek) Activity” (ASTRAZENECA AB, priority 2003, published 2008).

Experiments:
[1] = target: T1, Tie2 receptor tyrosine kinase (Homo sapiens, UniProt Q02763); assay: In vitro receptor tyrosine kinase inhibition assay (ELISA based, Test (a)); assay type: biochemical; conditions: recombinant human Tie2 kinase domain lysate, synthetic peptide substrate
T1 construct: consist of only the intracellular portion C-terminal portion of the respective receptor, within which is found the kinase domain; made in house; host or cells: baculovirus/Sf21 insect cells (cleared lysate used)
T1 sequence (Q02763 770-1124 limits assumed): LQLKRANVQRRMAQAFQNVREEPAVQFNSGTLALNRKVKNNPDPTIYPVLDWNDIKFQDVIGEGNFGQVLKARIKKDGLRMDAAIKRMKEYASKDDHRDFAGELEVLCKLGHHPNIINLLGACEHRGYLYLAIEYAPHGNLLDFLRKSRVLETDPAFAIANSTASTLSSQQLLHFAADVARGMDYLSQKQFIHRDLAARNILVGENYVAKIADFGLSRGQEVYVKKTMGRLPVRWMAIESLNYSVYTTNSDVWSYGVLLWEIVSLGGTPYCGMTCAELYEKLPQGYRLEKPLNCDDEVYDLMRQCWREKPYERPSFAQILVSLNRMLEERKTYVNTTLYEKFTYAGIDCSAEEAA
Protocol: a. In Vitro Receptor Tyrosine Kinase Inhibition Assay
To test for inhibition of Tie2 receptor tyrosine kinase, compounds are evaluated in a non-cell based protein kinase assay by their ability to inhibit the protein kinase enzyme phosphorylation of a tyrosine containing polypeptide substrate in an ELISA based microtitre plate assay. In this particular case, the assay was to determine the IC50, for three different recombinant human tyrosine kinases Tie2, KDR and Flt.
To facilitate production of the tyrosine kinases, recombinant receptor genes were produced using standard molecular biology cloning and mutagenesis techniques. These recombinant proteins fragments encoded within these genes consist of only the intracellular portion C-terminal portion of the respective receptor, within which is found the kinase domain. The recombinant genes encoding the kinase domain containing fragments were cloned and expressed in standard baculovirus/Sf21 system (or alternative equivalent). […]
Constitutive kinase activity of these recombinant proteins was determined by their ability to phosphorylate a synthetic peptide (made up of a random co-polymer of Glutamic Acid, Alanine and Tyrosine in the ratio of 6:3:1). […]
The immobilised phospho-peptide product of the reaction was detected by immunological methods. […] Following extensive washing with PBS-T, HRP activity in each well of the plate was measured colorimetrically using 22′-Azino-di-[3-ethylbenzthiazoline sulfonate (6)] diammonium salt crystals ABTS (Sigma P4922-prepared as per manufactures instructions) as a substrate incubated for 30-45 minutes to allow colour development, before 100 ul of 1M H2SO4 was added to stop the reaction.
Quantification of colour development and thus enzyme activity was achieved by the measurement of absorbance at 405 nm on a Molecular Devices ThermoMax microplate reader. Kinase inhibition for a given compound was expressed as an IC50 value. […] The range of phosphorylation was calculated from the positive (vehicle plus ATP) and negative (vehicle minus ATP) control values.

Tie2 receptor = target: T2, Tie2 receptor (Homo sapiens, UniProt Q02763); assay: Cellular Tie2 autophosphorylation assay (Test (b)); assay type: cell-based; conditions: Ang1 ligand stimulated cellular Tie2 receptor, e.g. EA.hy926/B3 cells; read-out: IC50 Test (b): Inhibition of autophosphorylation of Tie2 receptor tyrosine kinase
T2 construct: one can use natural cell lines or primary cells which are known to express the receptor of choice; endogenous in cells; host or cells: EA.hy926/B3 cells
T2 sequence (Q02763 23-1124): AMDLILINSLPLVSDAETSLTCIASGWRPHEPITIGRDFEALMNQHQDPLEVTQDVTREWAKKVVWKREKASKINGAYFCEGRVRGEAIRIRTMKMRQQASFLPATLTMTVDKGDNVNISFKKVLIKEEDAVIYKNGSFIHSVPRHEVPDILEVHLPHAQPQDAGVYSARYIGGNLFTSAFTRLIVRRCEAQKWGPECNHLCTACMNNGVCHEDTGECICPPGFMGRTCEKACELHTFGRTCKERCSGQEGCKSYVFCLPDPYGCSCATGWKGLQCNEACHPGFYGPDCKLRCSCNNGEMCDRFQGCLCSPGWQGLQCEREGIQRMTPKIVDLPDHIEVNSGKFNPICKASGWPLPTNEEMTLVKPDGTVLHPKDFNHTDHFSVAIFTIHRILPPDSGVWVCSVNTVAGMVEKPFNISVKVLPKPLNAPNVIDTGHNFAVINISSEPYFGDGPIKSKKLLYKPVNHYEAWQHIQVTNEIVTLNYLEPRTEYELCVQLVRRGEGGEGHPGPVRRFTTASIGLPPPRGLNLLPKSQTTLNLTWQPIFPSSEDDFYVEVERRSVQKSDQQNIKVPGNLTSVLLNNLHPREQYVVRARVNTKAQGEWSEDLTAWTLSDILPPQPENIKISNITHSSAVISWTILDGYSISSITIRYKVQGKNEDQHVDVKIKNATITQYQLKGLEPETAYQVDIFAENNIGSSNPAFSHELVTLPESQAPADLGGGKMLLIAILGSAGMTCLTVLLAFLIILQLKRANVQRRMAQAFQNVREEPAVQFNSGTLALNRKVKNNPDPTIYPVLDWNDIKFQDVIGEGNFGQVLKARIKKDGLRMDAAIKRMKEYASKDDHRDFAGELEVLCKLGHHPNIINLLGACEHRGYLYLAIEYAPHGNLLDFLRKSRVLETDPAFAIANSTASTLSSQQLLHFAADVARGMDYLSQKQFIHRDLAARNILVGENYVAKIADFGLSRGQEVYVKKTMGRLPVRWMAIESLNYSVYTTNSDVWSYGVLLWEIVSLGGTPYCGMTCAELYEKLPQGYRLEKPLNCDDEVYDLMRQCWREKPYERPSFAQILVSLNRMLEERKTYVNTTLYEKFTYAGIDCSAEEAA
Text: b. Cellular Tie2 Autophosphorylation Assay
This assay is based on measuring the ability of compounds to inhibit autophosphorylation of the Tie2 receptor which normally leads to the production of “activated” receptor that in turn initiates the particular signal transduction pathways associated with the receptor function.
Autophosphorylation can be achieved by a number of means. It is known that expression of recombinant kinase domains in baculoviral systems can lead to the production of phosphorylated and activated receptor. It is also reported that over expression of receptors in recombinant cell lines can itself lead to receptor autophosphorylation in the absence of the ligand (Heldin C-H. 1995 Cell : 80, 213-223; Blume-J. P, Hunter T. 2001 Nature: 411, 355-65). Furthermore, there are numerous literature examples in which chimaeric receptors have been constructed. In these cases the natural, external cell surface domain of the receptor has been replaced with that of a domain which is known to be readily dimerised via the addition of the appropriate ligand (e.g. TrkA-Tie2/NGF ligand (Marron, M. B., et al., 2000 Journal of Biological Chemistry: 275:39741-39746) or C-fms-Tie-1/CSF-1 ligand (Kontos, C. D., et al., 2002 Molecular and Cellular Biology: 22, 1704-1713). Thus when the chimaeric receptor expressed in a host cell line and the respective ligand is added, this induces autophosphorylation of the chimeric receptor's kinase domain. This approach has the advantage of often allowing a known (and often easily obtained) ligand to be used instead of having to identify and isolate the natural ligand for each receptor of interest.
Naturally if the ligand is available one can use natural cell lines or primary cells which are known to express the receptor of choice and simply stimulate with ligand to achieve ligand induced phosphorylation. […]

| Compound | IC50 [1] | IC50 (Tie2 receptor) |
| --- | --- | --- |
| CC(C)(C)c1nnc(NC(=O)Nc2ccc(C#Cc3c(N)ncnc3N)cc2)s1 [Example 11, N-(5-tert-butyl-1,3,4-thiadiazol-2-yl)-N′-{4-[(4,6-diaminopyrimidin-5-yl)ethynyl]phenyl}urea] | 0.879 µM | 5.56 µM |
| Cc1cc(NC(=O)Nc2ccc(C#Cc3c(N)ncnc3N)cc2)sn1 [Example 12, N-{4-[(4,6-diaminopyrimidin-5-yl)ethynyl]phenyl}-N′-(3-methylisothiazol-5-yl)urea] | 2.85 µM | 0.351 µM |
| Cc1cc(NC(=O)Nc2cccc(C#Cc3c(N)ncnc3N)c2)on1 [Example 19, N-{3-[(4,6-diaminopyrimidin-5-yl)ethynyl]phenyl}-N′-(3-methylsoxazol-5-yl)urea] | 2.14 µM | 3.54 µM |
